Data reported in ChEMBL document CHEMBL1201862, “PubChem BioAssay data set” (2004).
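48-hour exposure; five concentrations; linearly interpolated endpoints. At the GI50, growth is halved.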 Calls of active or inactive are those of the source. Cut-off read from the data, not from the text of the source: active = GI50 up to about 1.1 µM and inactive = higher.

How the values were obtained:
Assay in all cases: growth of human tumour cells (NCI), 48 h
OVCAR-5 = test system: OVCAR-5
OVCAR-3 = test system: OVCAR-3
ACHN = test system: ACHN
SNB-19 = test system: SNB-19
SR = test system: SR
SK-OV-3 = test system: SK-OV-3
SN12C = test system: SN12C
NCI-H460 = test system: NCI-H460
MOLT-4 = test system: MOLT-4
EKVX = test system: EKVX
UO-31 = test system: UO-31
HT-29 = test system: HT-29
COLO 205 = test system: COLO 205
NCI-H226 = test system: NCI-H226

Measured: GI50

COCOCCC#CCO
inactive: OVCAR-5 > 100 µM | OVCAR-3 > 100 µM | ACHN > 100 µM | SNB-19 > 100 µM | SR 83.8 µM | SK-OV-3 > 100 µM | SN12C > 100 µM | NCI-H460 > 100 µM | MOLT-4 > 100 µM | EKVX > 100 µM | UO-31 > 100 µM | HT-29 > 100 µM

COC(=O)/C(=C\c1ccc(N(CCC#N)CCC#N)cc1)NC(=O)c1cc([N+](=O)[O-])ccc1Cl
inactive: OVCAR-5 > 100 µM | OVCAR-3 > 100 µM | COLO 205 > 100 µM | ACHN > 100 µM | SNB-19 > 100 µM | NCI-H226 > 100 µM | SR 30.5 µM | SK-OV-3 > 100 µM | SN12C > 100 µM | NCI-H460 > 100 µM | MOLT-4 > 100 µM | EKVX > 100 µM | UO-31 > 100 µM | HT-29 > 100 µM

Cc1cc2c(cc1C)[n+]([O-])c(C(=O)CC(=O)C(=O)Nc1c(C(C)C)cccc1C(C)C)c(C)[n+]2[O-]
inactive: OVCAR-5 > 100 µM | OVCAR-3 > 100 µM | COLO 205 > 100 µM | ACHN > 100 µM | SNB-19 > 100 µM | NCI-H226 > 100 µM | SR > 100 µM | SK-OV-3 > 100 µM | SN12C > 100 µM | NCI-H460 > 100 µM | MOLT-4 > 100 µM | EKVX > 100 µM | UO-31 > 100 µM | HT-29 > 100 µM

C=CCCCCCCCCCP(=O)(c1ccccc1)c1ccc2c(c1)OCCOCCOCCOCCO2 (stereo unspecified)
inactive: OVCAR-5 17.4 µM | OVCAR-3 7.08 µM | COLO 205 15.9 µM | ACHN 16.7 µM | SNB-19 13.1 µM | NCI-H226 13.7 µM | SR 7.16 µM | SK-OV-3 20.2 µM | SN12C 16.3 µM | NCI-H460 13.2 µM | MOLT-4 9.75 µM | EKVX 19.6 µM | UO-31 10.8 µM | HT-29 12.2 µM

CCCCCCNC(=O)CCN(C(=O)O)S(=O)(=O)c1ccc(NC(=O)c2ccccc2)cc1
inactive: OVCAR-5 > 100 µM | OVCAR-3 > 100 µM | COLO 205 24.8 µM | ACHN > 100 µM | SNB-19 > 100 µM | NCI-H226 > 100 µM | SR 19.3 µM | SK-OV-3 > 100 µM | SN12C > 100 µM | NCI-H460 27.6 µM | MOLT-4 > 42.9 µM | EKVX > 100 µM | UO-31 > 100 µM | HT-29 > 86.1 µM

CP1(=O)CCCCC1
inactive: OVCAR-5 > 100 µM | OVCAR-3 > 100 µM | COLO 205 > 100 µM | ACHN > 100 µM | SNB-19 > 100 µM | NCI-H226 > 100 µM | SR > 100 µM | SK-OV-3 > 100 µM | SN12C > 100 µM | NCI-H460 > 100 µM | MOLT-4 > 100 µM | EKVX > 100 µM | UO-31 > 100 µM | HT-29 > 100 µM

OCC(O)C(O)C(O)c1nn(-c2ccccc2)c2nc3cc(Cl)c(Cl)cc3nc12 (stereo unspecified)
inactive: OVCAR-5 28.6 µM | OVCAR-3 40.3 µM | COLO 205 44.1 µM | ACHN 25.1 µM | SNB-19 74.6 µM | NCI-H226 36.5 µM | SR 33.9 µM | SK-OV-3 > 100 µM | SN12C 41.9 µM | NCI-H460 44.1 µM | MOLT-4 24.5 µM | EKVX 51.6 µM | UO-31 37.2 µM | HT-29 24.4 µM

CCN(CC)CCCC(C)Nc1ccnc2ccc3nn(C)nc3c12 (stereo unspecified)
inactive: OVCAR-5 > 100 µM | COLO 205 28.6 µM | ACHN 65.3 µM | SNB-19 > 100 µM | NCI-H226 39.6 µM | SR 32.8 µM | SK-OV-3 > 100 µM | SN12C 38.9 µM | NCI-H460 32.8 µM | MOLT-4 25.3 µM | EKVX > 100 µM | UO-31 40 µM | HT-29 26.5 µM

CN(C)CCCNC(=O)c1cccc2nc3ccccc3nc12
inactive: OVCAR-5 20.9 µM | OVCAR-3 19.4 µM | COLO 205 6.95 µM | ACHN 7.43 µM | SNB-19 19.8 µM | NCI-H226 12 µM | SR 4.57 µM | SK-OV-3 > 52.1 µM | SN12C 23.2 µM | MOLT-4 9.77 µM | EKVX 27.3 µM | UO-31 24.5 µM | HT-29 6.75 µM

OC12c3ccccc3C1CCCCC2N1CCCC1 (stereo unspecified)
inactive: COLO 205 > 100 µM | ACHN > 100 µM | SNB-19 > 100 µM | NCI-H226 > 100 µM | SR > 100 µM | SK-OV-3 > 100 µM | SN12C > 100 µM | NCI-H460 > 100 µM | MOLT-4 > 100 µM | EKVX > 100 µM | UO-31 > 100 µM | HT-29 > 100 µM

O=C(Cc1ccccc1)N/N=C(/c1nc2ccc([N+](=O)[O-])cc2nc1O)C(O)c1ccco1 (stereo unspecified)
inactive: OVCAR-5 > 100 µM | COLO 205 > 100 µM | ACHN 57.4 µM | NCI-H226 > 100 µM | SR > 100 µM | SK-OV-3 > 100 µM | SN12C > 100 µM | NCI-H460 > 100 µM | MOLT-4 > 100 µM | EKVX > 100 µM | UO-31 > 100 µM | HT-29 > 100 µM
